Experimental data published in patent US20230053688A1, “METHODS TO ALTER LATENCY IN EBV+ MALIGNANCIES” (Cornell University, priority 2020, published 2023).
Counter-ions that a name gives are not always drawn. Like-named read-outs stand apart in the source and are kept apart here.

System: LMP1 expression in Kem I cells
Test: microbe, parasite or virus in culture
Format: cell-based, EBV
Conditions: for fold induction at 2.5 µM: human gammaherpesvirus 4, 48 h
[1] = read-out: Average LMP1 Fold Increase, Kem I cells, dose 2.5 uM, 48 hours, LMP1 transcript by in-well qRT-PCR, average of the two replicates
[2] = read-out: Replicate 1-LMP1 Fold Increase, Kem I cells, dose 2.5 uM, 48 hours, LMP1 transcript by in-well qRT-PCR, screen replicate 1
[3] = read-out: Replicate 2-LMP1 Fold Increase, Kem I cells, dose 2.5 uM, 48 hours, LMP1 transcript by in-well qRT-PCR, screen replicate 2
[4] = Kem I cells, dose 2.5 uM, 48 hours, LMP1 transcript by in-well qRT-PCR, average of the two replicates
[5] = Kem I cells, dose 2.5 uM, 48 hours, LMP1 transcript by in-well qRT-PCR, screen replicate 1
[6] = Kem I cells, dose 2.5 uM, 48 hours, LMP1 transcript by in-well qRT-PCR, screen replicate 2

| SMILES | fold induction at 2.5 µM [1] | fold induction at 2.5 µM [2] | fold induction at 2.5 µM [3] | Average LMP1 Fold Increase [4] | Replicate 1-LMP1 Fold Increase [5] | Replicate 2-LMP1 Fold Increase [6] | other results |
| --- | --- | --- | --- | --- | --- | --- | --- |
| CN(C)CCOc1ccc(/C(=C(/CCCl)c2ccccc2)c2ccccc2)cc1 [Toremifene Citrate] | 0.54 | 0.55 | 0.54 |  |  |  |  |
| CC(C)C[C@@H](C(=O)N[C@H](C(=O)OC1CCCC1)c1ccccc1)[C@H](O)C(=O)NO [Tosedostat (CHR2797)] |  |  |  | 0.64 fold | 0.56 fold | 0.72 fold |  |
| Cn1c(=O)cc(N2CCC[C@@H](N)C2)n(Cc2cc(F)ccc2C#N)c1=O [Trelagliptin] | 0.63 | 0.96 | 0.31 |  |  |  |  |
| Nc1nc(N)c2nc(-c3ccccc3)c(N)nc2n1 [Triamterene] | 0.91 | 0.56 | 1.26 |  |  |  |  |
| CC(/C=C/C(=O)NO)=C\[C@@H](C)C(=O)c1ccc(N(C)C)cc1 [Trichostatin A (TSA)] |  |  |  | 88.29 fold | 44.18 fold | 132.40 fold |  |
| CCC(COC(=O)c1cc(OC)c(OC)c(OC)c1)(c1ccccc1)N(C)C (stereo not drawn) [Trimebutine] | 1.37 | 2.11 | 0.63 |  |  |  |  |
| O=C(O[C@H]1C[C@H]2CC[C@@H](C1)[N+]21CCCC1)C(O)(c1ccccc1)c1ccccc1 [Trospium chloride] | 0.35 | 0.33 | 0.37 |  |  |  |  |
| CC(C)(C)c1cc(/C=C(\C#N)C(N)=S)cc(C(C)(C)C)c1O [Tyrphostin AG 879] |  |  |  | 0.74 fold | 0.53 fold | 0.95 fold |  |
| CCO.N#CC(=C(/N)Sc1ccccc1N)/C(C#N)=C(\N)Sc1ccccc1N [U0126-EtOH] |  |  |  |  |  |  | Average LMP1 Fold Increase: 0.58 fold; Replicate 1-LMP1 Fold Increase: 0.51 fold; Replicate 2-LMP1 Fold Increase: 0.65 fold |
| O=C(c1cncc(Br)c1)N1CCC(N2CCCC2)CC1 [UNC669] |  |  |  | 0.50 fold | 0.75 fold | 0.25 fold |  |
| CCCCNc1ncc(-c2ccc(CN3CCOCC3)cn2)c(NC2CCC(O)CC2)n1 (stereo not drawn) [UNC2250] |  |  |  | 0.41 fold | 0.54 fold | 0.29 fold |  |
| NC(=O)c1cccc(-c2cccc(OC(=O)NC3CCCCC3)c2)c1 [URB597] | 0.54 | 0.52 | 0.55 |  |  |  |  |
| CS(=O)(=O)c1ccc(-c2cnc(N)c(C(=O)Nc3ccccc3)n2)cc1 [VE-821] | 0.17 | 0.2 | 0.14 |  |  |  |  |
| CNCc1ccc(-c2cc(-c3nc(-c4ccc(S(=O)(=O)C(C)C)cc4)cnc3N)on2)cc1 [VE-822] | 4.03 | 3.28 | 4.78 |  |  |  |  |
| Cc1cc(Nc2cc(N3CCN(C)CC3)nc(Sc3ccc(NC(=O)C4CC4)cc3)n2)n[nH]1 [VX-680 (Tozasertib, MK-0457)] |  |  |  | 0.74 fold | 0.96 fold | 0.52 fold |  |
| O=c1ncn2nc(Sc3ccc(F)cc3F)ccc2c1-c1c(Cl)cccc1Cl [VX-745] | 0.49 | 0.75 | 0.24 |  |  |  |  |
| CCO[C@@H]1OC(=O)C[C@@H]1NC(=O)[C@@H]1CCCN1C(=O)[C@@H](NC(=O)c1ccc(N)c(Cl)c1)C(C)(C)C [VX-765] | 0.41 | 0.45 | 0.37 |  |  |  |  |
| Cc1ccc(NC(=O)C2(c3ccc4c(c3)OC(F)(F)O4)CC2)nc1-c1cccc(C(=O)O)c1 [VX-809 (Lumacaftor)] |  |  |  | 0.87 fold | 0.55 fold | 1.18 fold |  |
| COc1cc2/c(=N/c3ccc(Br)cc3F)nc[nH]c2cc1OCC1CCN(C)CC1 [Vandetanib (ZD6474)] |  |  |  | 1.14 fold | 0.81 fold | 1.47 fold |  |
